Measured values reported in patent US20140134283A1, “Compositions and Methods for Affecting Mental State and Body Composition” (USPLABS. LLC, priority 2012, published 2014).
Entries after “also recorded” stand apart in the source; their conditions may differ.

Tests used:
human subjects [1] = test: Human study, six adult males ingesting 200-800 mg aegeline per day: effects reported by subjects; type: in vivo
Description: In a separate study, the compound aegeline was orally administered to six human subjects. The volunteer subjects were all non-smoking males between the ages of 24-36.

human subjects [2] = test: Initial human study, two male subjects ingesting aegeline for 12-18 weeks, reported effects; type: in vivo; conditions: for libido: male volunteers

Structure (SMILES): COc1ccc(C(O)CNC(=O)/C=C/c2ccccc2)cc1 (stereo not shown) [aegeline, N-[2-hydroxy-2(4-methoxyphenyl)ethyl]-3-phenyl-2-propenamide]
- anabolic effects (human subjects [1]; 200 mg per day): became apparent after extended use
- thermogenic effect (human subjects [1]; 200 mg per day): very apparent
- time of daily administration until anabolic effects became apparent (human subjects [1]; 200 mg per day): around 7 days
- libido (human subjects [1]; 400 mg per day): very apparent and prolonged increase
- effect on libido (human subjects [1]; daily dose of 200 mg): further increased
- effects on mental stamina, energy level, focus, and mood (human subjects [1]; daily dose of 200 mg): very apparent
- anabolic effects (human subjects [1]; daily dose of 400 mg): immediately apparent
- dose-dependency of effects on mental stamina, energy level, focus, and mood (human subjects [1]; doses above 400 mg per day): not readily observed
- physical performance for exercise and strength training activities (human subjects [1]; one subject, daily dose of 800 mg): improved physical performance
- effect on thermogenesis (human subjects [2]; daily dose of 80 mg): without a very noticeable effect; also recorded: not very noticeable
- mental stamina, focus, and mood (human subjects [2]; daily dose of 80 mg): effective to increase or improve
- duration of effects on mental stamina, focus, and mood after effect onset (human subjects [2]; daily dose of 120 mg): 8 to 10 h
- mental stamina, focus, and mood (human subjects [2]; daily dose of 120 mg): further increased or improved
- thermogenic effect (human subjects [2]; daily dose of 120 mg): noticeable but not very apparent; also recorded: noticeable
- mental stamina, focus, energy level, mood and thermogenesis (human subjects [2]; dose increase to 150-180 mg): further enhanced or increased
- libido (human subjects [2]; daily dose of 150 mg): increased libido; also recorded: effective to increase libido
- libido (human subjects [2]; daily doses lower than 150 mg): not at the lower daily doses
- reported effects (human subjects [2]; two male subjects, 20-60 mg per day): no immediate apparent effects
- mental stamina, focus and concentration, energy level, and mood (human subjects [2]; two male subjects, 80-150 mg per day): increased or improved
